Test results: paper PMC7567642, “A Fully Integrated Assay Panel for Early Drug Metabolism and Pharmacokinetics Profiling” (Assay and Drug Development Technologies, 2020)
In brackets after ≈: the same amount, converted by molar mass. Where two headings read alike, the source gives them in different places.

Assays:
[1] = Automated shake-flask logD7.4 assay (1-octanol/phosphate buffer pH 7.4); type: physicochemical
Procedure: The assay starts with transfer of individual compound solutions into pools of 10 compounds, alongside two pool QCs, using a Hamilton STARplus liquid handling workstation. […] This step combines 4 μL each of 10 mM compound solutions to a total of 48 μL in an intermediate plate (pool QCs are at 5 mM each). These and subsequent transfers as outlined below involve fresh pipetting tips to eliminate risks of cross-contamination.
The next assay step involves transfer of 500 μL octanol from a tray to an empty deep well plate, to which 10 μL of each pool is subsequently transferred and thoroughly mixed by repetitive aspiration and dispensing. An octanol-saturated phosphate buffer at pH 7.4 is then added (500 μL) followed by sealing of the content with a PP-based lid. Vigorous shaking of the content is achieved through vortexing for 30 s and equilibration of compound between the two phases is further established through a 3 h incubation on a plate shaker.
Following equilibration, the deep well plate is centrifuged to ensure separation between phases and the plate is next moved back to the Hamilton platform for sampling of 5 μL from the octanol phase. The sample is placed in a first dilution plate together with 495 μL of an AcN:H2O mix (1:2) containing FA (0.1%) and verapamil as internal standard (IS). The acidified and IS containing AcN solution, which is common for the logD7.4 and Sol assays, is referred to as the IS solution. The content is thoroughly mixed and next serially diluted to four additional plates with 10-fold dilutions to maximize the ability to detect weakly concentrated solutions and afford investigations of linearity in response.
After sampling, the remaining octanol is removed from the deep well plate through careful pipetting, followed by sampling from the aqueous buffer. […]
The plates are next brought to the MS instrumentation (Xevo TQS; Waters) and read out using the established UPLC-MS/MS methods. […]

[2] = set-up: method as in PMID 19429424; conditions: published dried DMSO assays; cited from earlier work
[3] = QC control, literature value; cited from earlier work
[4] = Dried DMSO solubility assay (Sol), phosphate buffer pH 7.4; type: physicochemical; conditions: ATM inhibitor project
Procedure: Unlike the logD7.4 assay compounds are not pooled, but instead 50 μL of individual DMSO stock solutions are transferred to glass vials kept in a 3D printed rack that facilitates subsequent liquid transfers using a 96-well pipetting head on the Hamilton STARplus platform. There is no pool QC in the Sol workflow, instead this is replaced with the inclusion of three QCs, the positioning of which is randomized for each week. Solvent is evaporated and the dried compounds are resolubilized in 500 μL of aqueous phosphate buffer at pH 7.4.
Individual Stir Stixs are added to each glass vial using a drop dispenser from V&P Scientific, Inc., a rubber mat is used to seal the vials, and samples are then equilibrated under mixing for 20–24 h. […]
The process of centrifugation and transfer is repeated to remove any remaining debris, except that the 20 μL supernatant transfer combines sampling and pooling of 10 samples to a pool plate with 200 μL of an IS solution (same as in logD7.4). […] Finally, sample and standard plates are sealed and read out, analyzed, and qualified as described for the logD7.4 assay. Calculated solubility values (in μM) are exported into our internal database ensuring global availability to users.

[5] = molecular target: Ataxia Telangiectasia Mutated (ATM) kinase (Homo sapiens, UniProt Q13315); conditions: ATM inhibitor project
[6] = test system: human plasma; conditions: cited from earlier work

Sequence of Ataxia Telangiectasia Mutated (ATM) kinase (Q13315 whole entry, species assumed, change not shown): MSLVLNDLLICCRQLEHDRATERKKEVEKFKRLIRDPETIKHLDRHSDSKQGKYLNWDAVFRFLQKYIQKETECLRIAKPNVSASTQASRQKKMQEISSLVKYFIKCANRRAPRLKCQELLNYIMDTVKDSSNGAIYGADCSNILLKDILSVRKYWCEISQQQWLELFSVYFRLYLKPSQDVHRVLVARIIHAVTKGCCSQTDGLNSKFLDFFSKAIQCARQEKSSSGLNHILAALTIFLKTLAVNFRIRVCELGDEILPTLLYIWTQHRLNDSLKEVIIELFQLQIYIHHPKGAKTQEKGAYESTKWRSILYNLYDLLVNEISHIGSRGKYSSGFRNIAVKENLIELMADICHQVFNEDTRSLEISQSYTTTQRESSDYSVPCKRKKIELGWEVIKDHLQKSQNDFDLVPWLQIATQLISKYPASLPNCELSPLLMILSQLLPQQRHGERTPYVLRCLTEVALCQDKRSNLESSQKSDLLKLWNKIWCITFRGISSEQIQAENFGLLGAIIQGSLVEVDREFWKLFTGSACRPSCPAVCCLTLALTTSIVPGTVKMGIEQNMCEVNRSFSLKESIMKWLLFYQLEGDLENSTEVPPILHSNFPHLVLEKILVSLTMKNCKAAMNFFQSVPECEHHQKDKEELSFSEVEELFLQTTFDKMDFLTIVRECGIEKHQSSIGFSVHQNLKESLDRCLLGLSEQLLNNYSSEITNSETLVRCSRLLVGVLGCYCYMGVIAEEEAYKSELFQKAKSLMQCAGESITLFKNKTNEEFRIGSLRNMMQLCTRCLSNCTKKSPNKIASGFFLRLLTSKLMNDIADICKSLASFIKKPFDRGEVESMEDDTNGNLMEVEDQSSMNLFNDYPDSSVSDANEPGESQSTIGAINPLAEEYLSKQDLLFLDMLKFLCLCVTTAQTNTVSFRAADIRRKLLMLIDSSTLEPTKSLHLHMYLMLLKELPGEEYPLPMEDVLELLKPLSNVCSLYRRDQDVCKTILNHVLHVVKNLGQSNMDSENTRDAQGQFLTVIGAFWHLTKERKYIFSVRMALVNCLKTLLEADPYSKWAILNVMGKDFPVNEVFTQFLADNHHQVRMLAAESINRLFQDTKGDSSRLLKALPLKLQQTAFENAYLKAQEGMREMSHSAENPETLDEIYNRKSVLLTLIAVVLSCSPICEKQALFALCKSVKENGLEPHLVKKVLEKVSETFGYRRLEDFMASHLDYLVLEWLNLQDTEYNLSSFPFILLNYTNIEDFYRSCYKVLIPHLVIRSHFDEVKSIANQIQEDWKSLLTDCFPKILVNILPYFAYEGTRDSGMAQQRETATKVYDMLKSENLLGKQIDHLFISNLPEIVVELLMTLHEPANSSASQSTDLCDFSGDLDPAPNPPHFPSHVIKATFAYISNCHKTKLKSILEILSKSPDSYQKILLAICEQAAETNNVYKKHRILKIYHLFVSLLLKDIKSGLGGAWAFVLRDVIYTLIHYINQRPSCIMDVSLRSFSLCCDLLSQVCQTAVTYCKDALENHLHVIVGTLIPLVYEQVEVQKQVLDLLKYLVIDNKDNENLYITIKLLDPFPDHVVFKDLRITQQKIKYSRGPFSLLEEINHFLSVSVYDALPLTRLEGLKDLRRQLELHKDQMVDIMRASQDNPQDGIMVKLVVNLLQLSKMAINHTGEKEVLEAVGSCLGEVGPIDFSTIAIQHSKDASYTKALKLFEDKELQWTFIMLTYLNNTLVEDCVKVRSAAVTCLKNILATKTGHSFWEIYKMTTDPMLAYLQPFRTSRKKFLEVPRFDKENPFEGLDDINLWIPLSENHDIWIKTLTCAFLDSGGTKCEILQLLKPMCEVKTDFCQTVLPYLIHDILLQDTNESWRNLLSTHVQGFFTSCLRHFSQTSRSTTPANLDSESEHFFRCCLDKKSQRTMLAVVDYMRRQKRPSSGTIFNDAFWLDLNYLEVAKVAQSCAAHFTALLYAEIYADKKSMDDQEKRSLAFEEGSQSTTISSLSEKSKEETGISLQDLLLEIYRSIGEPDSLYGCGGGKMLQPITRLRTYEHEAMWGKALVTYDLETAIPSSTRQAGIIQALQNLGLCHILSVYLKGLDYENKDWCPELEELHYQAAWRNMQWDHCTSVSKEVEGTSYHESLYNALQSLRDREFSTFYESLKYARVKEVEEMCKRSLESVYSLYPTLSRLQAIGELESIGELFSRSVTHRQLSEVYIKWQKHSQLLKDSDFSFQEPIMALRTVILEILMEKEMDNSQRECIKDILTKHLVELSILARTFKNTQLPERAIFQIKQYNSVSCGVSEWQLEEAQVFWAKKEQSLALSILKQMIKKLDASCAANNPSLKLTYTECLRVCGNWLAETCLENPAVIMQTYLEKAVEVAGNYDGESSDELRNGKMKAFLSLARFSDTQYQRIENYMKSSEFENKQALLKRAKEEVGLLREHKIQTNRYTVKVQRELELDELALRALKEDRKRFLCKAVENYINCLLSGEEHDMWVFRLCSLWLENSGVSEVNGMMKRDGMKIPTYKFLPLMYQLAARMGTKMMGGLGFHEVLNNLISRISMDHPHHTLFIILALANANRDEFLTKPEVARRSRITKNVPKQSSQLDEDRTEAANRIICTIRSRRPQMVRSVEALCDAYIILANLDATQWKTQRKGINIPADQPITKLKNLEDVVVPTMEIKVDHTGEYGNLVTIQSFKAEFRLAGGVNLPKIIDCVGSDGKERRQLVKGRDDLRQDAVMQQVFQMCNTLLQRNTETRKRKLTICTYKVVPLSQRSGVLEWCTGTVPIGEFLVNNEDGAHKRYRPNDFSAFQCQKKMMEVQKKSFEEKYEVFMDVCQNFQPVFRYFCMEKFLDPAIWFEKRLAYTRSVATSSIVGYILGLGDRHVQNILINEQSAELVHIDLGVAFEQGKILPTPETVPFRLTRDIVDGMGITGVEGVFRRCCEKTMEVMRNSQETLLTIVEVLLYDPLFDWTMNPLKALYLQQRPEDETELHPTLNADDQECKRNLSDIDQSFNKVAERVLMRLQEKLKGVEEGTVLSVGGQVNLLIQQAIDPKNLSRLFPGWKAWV

**Q.** For CC(C)n1c(=O)n(C)c2cnc3cc(F)c(-c4ccc(OCCCN5CCCCC5)nc4)cc3c21, which logD at 3 h ([1]; pH 7.4, ATM inhibitor project, DMPK Wave 1 panel) is on record?
**A.** 2.7

**Q.** With COc1ccc(CCN2CCC(Nc3nc4ccccc4n3Cc3ccc(F)cc3)CC2)cc1 [astemizole, Astemizole] as the compound, how does the solubility [2] read?
**A.** 2.9 µM (≈ 1.33 µg/mL)

**Q.** With CN(C)CCCN1c2ccccc2Sc2ccc(Cl)cc21 [chlorpromazine, Chlorpromazine] as the compound, how does the solubility [2] read?
**A.** 450 µM (≈ 143 µg/mL)

**Q.** Which logD7.4 [3] does the source give for CN(C)CCC=C1c2ccccc2C=Cc2ccccc21 [cyclobenzaprine, Cyclobenzaprine] here?
**A.** 2.8

**Q.** Which logD7.4 ([1]; ATM inhibitor project, DMPK Wave 1 panel) does the source give for CCC(CC)CNc1c(C(N)=O)cnc2ccc(C#N)cc12 [initial starting point] here?
**A.** 3.5

**Q.** And the “solubility (in words)” value [4]?
**A.** low μM solubility

**Q.** What about the “potency on the target protein (in words)” value [5] of the same compound?
**A.** μM potency

**Q.** For COCCc1ccc(OCC(O)CNC(C)C)cc1 (centres unmarked) [metoprolol, Metoprolol], which “fu (fraction unbound)” value [6] is on record?
**A.** ~85%

**Q.** For COC(=O)C1=C(C)NC(C)=C(C(=O)OCCN(C)Cc2ccccc2)C1c1cccc([N+](=O)[O-])c1 (centres unmarked) [nicardipine, Nicardipine], which logD at 3 h ([1]; 1-octanol/phosphate buffer pH 7.4, pH 7.4, QC control, in-house data) is on record?
**A.** 4.5

**Q.** Which solubility [2] does the source give for O=C1NC(=O)C(c2ccccc2)(c2ccccc2)N1 [phenytoin, Phenytoin] here?
**A.** 86 µM (≈ 21.7 µg/mL)

**Q.** For CC(=O)CC(c1ccccc1)c1c(O)c2ccccc2oc1=O (centres unmarked) [warfarin, Warfarin], which “fu (fraction unbound)” value [6] is on record?
**A.** ~1%
